Experimental data taken from patent US8338594B2, “Pyrrolotriazine derivatives useful for treating cancer through inhibition of aurora kinase” (Bayer HealthCare LLC, priority 2005, dated 2012).
pIC50: −log10 of the molar value.

Tests used:
[1] = molecular target: T1, murine Aurora Kinase 1 (mAur1) (Mus musculus, UniProt O70126); experiment: murine Aurora Kinase 1 (mAur1) biochemical Scintillation Proximity Assay; settings: SPA, biotinylated Peptide 830, 1 μM ATP, 12 nM GST-tagged mAur 1 co-expressed with human INCENP
T1 construct: recombinant, GST-tagged mAur 1 (amino acids 67-345) that was co-expressed with human INCENP; GST; made in house
Description: (§1) Using a Scintillation Proximity Assay (SPA) format, the murine Aurora Kinase 1 (mAur1) and murine Aurora Kinase 2 (mAur2) biochemical assay measures the ability of mAur2 to phosphorylate the substrate, biotinylated Peptide 830 (DRT, Protein Sciences). Once radiolabeled by the enzyme, the biotinylated substrate is captured on streptavidin-coated SPA beads and the radioactivity, in proximity to the SPA beads, is measured. For the generation of IC50 curves, the reaction was performed in 96-well isoplates (Wallac 1450-514) under the following conditions: a 10 mM stock solution of compound (in 100% dimethylsulfoxide; DMSO) was diluted 10 fold in 100% DMSO. Compounds were then serially diluted, 1:5, for an eight point dose curve, in 100% DMSO. A volume of 1 μL of the diluted compound was added to the reaction buffer that consisted of 25 mM HEPES pH 7.5, 1 mM MnCl2, 1 mM MgCl2, 1 mM DTT, 0.01% Tween20. A mixture with a final concentration per well of 1 μM cold ATP, 0.1 μCi ^33P-ATP (Amersham AH9968) and 1 μM biotinylated Peptide 830 was then added. The reaction was initiated with the addition of either recombinant, GST-tagged mAur 1 (amino acids 67-345) that was co-expressed with human INCENP (amino acids 704-919) (DRT, Protein Sciences) at a final concentration of 12 nM or N-terminal His-tagged mAur2 (amino acids 98-395; DRT, Protein Sciences) at a final concentration of 20 nM. The final reaction volume in each well was 100 μL and the final compound concentration ranged from 10 μM-[…] in 1% DMSO. The reaction mixture was allowed to incubate for 1-2 hours with gentle agitation at 25° C. To terminate the reaction, streptavidin-coated SPA beads (Amersham RPNQ0007; 50 μL of 0.5 mg beads dissolved in 165 mM EDTA) were then added to each well and incubation proceeded for an additional 15 minutes at 25° C. The plate was then centrifuged for ten minutes at 2000 rpm. Phosphorylation of the peptide substrate was measured using a Wallac 1450 Microbeta Plus Liquid Scintillation Counter.

[2] = molecular target: T2, murine Aurora Kinase 2 (mAur2) (Mus musculus, UniProt P97477); experiment: murine Aurora Kinase 2 (mAur2) biochemical Scintillation Proximity Assay; settings: SPA, biotinylated Peptide 830, 1 μM ATP, 20 nM His-tagged mAur2
T2 construct: N-terminal His-tagged mAur2 (amino acids 98-395; DRT, Protein Sciences); His (N); made in house
T2 sequence (P97477 98-395): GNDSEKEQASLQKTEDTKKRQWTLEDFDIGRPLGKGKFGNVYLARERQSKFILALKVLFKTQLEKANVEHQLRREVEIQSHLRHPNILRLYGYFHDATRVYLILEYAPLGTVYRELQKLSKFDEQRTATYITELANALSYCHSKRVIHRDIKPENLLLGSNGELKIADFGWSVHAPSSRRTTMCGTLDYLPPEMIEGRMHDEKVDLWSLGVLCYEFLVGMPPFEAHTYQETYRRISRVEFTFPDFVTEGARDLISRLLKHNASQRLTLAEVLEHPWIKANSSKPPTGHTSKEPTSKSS
Description: as §1

T1 sequence (O70126 67-345): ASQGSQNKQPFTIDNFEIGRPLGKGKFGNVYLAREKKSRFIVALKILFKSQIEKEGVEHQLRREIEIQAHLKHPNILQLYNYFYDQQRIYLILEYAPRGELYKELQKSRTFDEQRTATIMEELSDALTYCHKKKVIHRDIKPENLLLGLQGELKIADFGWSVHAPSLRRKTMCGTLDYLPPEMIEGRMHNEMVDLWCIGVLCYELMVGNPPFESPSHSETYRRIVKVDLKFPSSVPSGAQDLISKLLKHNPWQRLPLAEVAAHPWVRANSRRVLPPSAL
T1 sequence (Q9NQS7 704-918 partner): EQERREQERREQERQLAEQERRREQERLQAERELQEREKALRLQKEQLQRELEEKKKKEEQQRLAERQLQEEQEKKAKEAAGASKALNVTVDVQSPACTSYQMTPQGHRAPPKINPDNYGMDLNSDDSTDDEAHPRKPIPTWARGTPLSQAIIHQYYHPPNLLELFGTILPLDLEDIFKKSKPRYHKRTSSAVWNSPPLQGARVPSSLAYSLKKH

| Compound | pIC50 [1] | pIC50 [2] |
| --- | --- | --- |
| CN(C)C(=O)c1cn2ncnc(N)c2c1-c1ccc(Nc2nc3cc(F)cc(F)c3[nH]2)cc1 [Example 74, 4-amino-5-{4-[(5,7-difluoro-1H-benzimidazol-2-yl)amino]phenyl}-N,N-dimethylpyrrolo[2,1-f][1,2,4]triazine-6-carboxamide] | > 7.00 | > 7.00 |
| COCCNC(=O)c1cn2ncnc(N)c2c1-c1ccc(Nc2nc3cc(F)cc(F)c3[nH]2)cc1 [Example 75, 4-amino-5-{4-[(5,7-difluoro-1H-benzimidazol-2-yl)amino]phenyl}-N-(2-methoxyethyl)pyrrolo[2,1-f][1,2,4]triazine-6-carboxamide] | > 7.00 | > 7.00 |
| Nc1ncnn2cc(C(=O)N3CCOCC3)c(-c3ccc(Nc4nc5cc(F)cc(F)c5[nH]4)cc3)c12 [Example 76, 5-{4-[(5,7-difluoro-1H-benzimidazol-2-yl)amino]phenyl}-6-(morpholin-4-ylcarbonyl)pyrrolo[2,1-f][1,2,4]triazin-4-amine] | > 7.00 | > 7.00 |
| Nc1ncnn2cc(C(=O)NCC3CC3)c(-c3ccc(Nc4nc5cc(F)cc(F)c5[nH]4)cc3)c12 [Example 80, 4-amino-N-(cyclopropylmethyl)-5-{4-[(5,7-difluoro-1H-benzimidazol-2-yl)amino]phenyl}pyrrolo[2,1-f][1,2,4]triazine-6-carboxamide] | > 7.00 | > 7.00 |
| NC(=O)C1CCN(C(=O)c2cn3ncnc(N)c3c2-c2ccc(Nc3nc4cc(F)cc(F)c4[nH]3)cc2)CC1 [Example 81, 1-[(4-amino-5-{4-[(5,7-difluoro-1H-benzimidazol-2-yl)amino]phenyl}pyrrolo[2,1-f][1,2,4]triazin-6-yl)carbonyl]piperidine-4-carboxamide] | > 7.00 | > 7.00 |
| Nc1ncnn2cc(C(=O)NC3CCCC3)c(-c3ccc(Nc4nc5cc(F)cc(F)c5[nH]4)cc3)c12 [Example 85, 4-amino-N-cyclopentyl-5-{4-[(5,7-difluoro-1H-benzimidazol-2-yl)amino]phenyl}pyrrolo[2,1-f][1,2,4]triazine-6-carboxamide] | > 7.00 | > 7.00 |
| CCN(C)C(=O)c1cn2ncnc(N)c2c1-c1ccc(Nc2nc3cc(F)cc(F)c3[nH]2)cc1 [Example 89, 4-amino-5-{4-[(5,7-difluoro-1H-benzimidazol-2-yl)amino]phenyl}-N-ethyl-N-methylpyrrolo[2,1-f][1,2,4]triazine-6-carboxamide] | > 7.00 | > 7.00 |
| CCN(C(=O)c1cn2ncnc(N)c2c1-c1ccc(Nc2nc3cc(F)cc(F)c3[nH]2)cc1)C(C)C [Example 90, 4-amino-5-{4-[(5,7-difluoro-1H-benzimidazol-2-yl)amino]phenyl}-N-ethyl-N-isopropylpyrrolo[2,1-f][1,2,4]triazine-6-carboxamide] | > 7.00 | > 7.00 |
| COCC1CCCN1C(=O)c1cn2ncnc(N)c2c1-c1ccc(Nc2nc3cc(F)cc(F)c3[nH]2)cc1 (centres unmarked) [Example 91, 5-{4-[(5,7-difluoro-1H-benzimidazol-2-yl)amino]phenyl}-6-{[2-(methoxymethyl)pyrrolidin-1-yl]carbonyl}pyrrolo[2,1-f][1,2,4]triazin-4-amine] | > 7.00 | > 7.00 |
| CC(C)N(C)C(=O)c1cn2ncnc(N)c2c1-c1ccc(Nc2nc3cc(F)cc(F)c3[nH]2)cc1 [Example 92, 4-amino-5-{4-[(5,7-difluoro-1H-benzimidazol-2-yl)amino]phenyl}-N-isopropyl-N-methylpyrrolo[2,1-f][1,2,4]triazine-6-carboxamide] | > 7.00 | > 7.00 |
| CCCN(C)C(=O)c1cn2ncnc(N)c2c1-c1ccc(Nc2nc3cc(F)cc(F)c3[nH]2)cc1 [Example 93, 4-amino-5-{4-[(5,7-difluoro-1H-benzimidazol-2-yl)amino]phenyl}-N-methyl-N-propylpyrrolo[2,1-f][1,2,4]triazine-6-carboxamide] | > 7.00 | > 7.00 |
| Nc1ncnn2cc(C(=O)N3CCCC3)c(-c3ccc(Nc4nc5cc(F)cc(F)c5[nH]4)cc3)c12 [Example 96, 5-{4-[(5,7-difluoro-1H-benzimidazol-2-yl)amino]phenyl}-6-(pyrrolidin-1-ylcarbonyl)pyrrolo[2,1-f][1,2,4]triazin-4-amine] | > 7.00 | > 7.00 |
| Nc1ncnn2cc(C(=O)O)c(-c3ccc(Nc4nc5ccc(Oc6ccccc6)c(F)c5[nH]4)cc3)c12 [Example 101, 4-amino-5-{4-[(7-fluoro-6-phenoxy-1H-benzimidazol-2-yl)amino]phenyl}pyrrolo[2,1-f][1,2,4]triazine-6-carboxylic acid] | > 7.00 | > 7.00 |
| Nc1ncnn2cc(C(=O)NC3CC3)c(-c3ccc(Nc4nc5ccc(Oc6ccccc6)c(F)c5[nH]4)cc3)c12 [Example 105, 4-amino-N-cyclopropyl-5-{4-[(7-fluoro-6-phenoxy-1H-benzimidazol-2-yl)amino]phenyl}pyrrolo[2,1-f][1,2,4]triazine-6-carboxamide] | > 7.00 | > 7.00 |
| CCN(C)C(=O)c1cn2ncnc(N)c2c1-c1ccc(Nc2nc3ccc(Oc4ccccc4)c(F)c3[nH]2)cc1 [Example 106, 4-amino-N-ethyl-5-{4-[(7-fluoro-6-phenoxy-1H-benzimidazol-2-yl)amino]phenyl}-N-methylpyrrolo[2,1-f][1,2,4]triazine-6-carboxamide] | > 7.00 | > 7.00 |
| Nc1ncnn2cc(C(=O)N3CCCCC3)c(-c3ccc(Nc4nc5ccc(Oc6ccccc6)c(F)c5[nH]4)cc3)c12 [Example 107, 5-{4-[(7-fluoro-6-phenoxy-1H-benzimidazol-2-yl)amino]phenyl}-6-(piperidin-1-ylcarbonyl)pyrrolo[2,1-f][1,2,4]triazin-4-amine] | > 7.00 | > 7.00 |
| Nc1ncnn2cc(C(=O)N3CCOCC3)c(-c3ccc(Nc4nc5ccc(Oc6ccccc6)c(F)c5[nH]4)cc3)c12 [Example 108, 5-{4-[(7-fluoro-6-phenoxy-1H-benzimidazol-2-yl)amino]phenyl}-6-(morpholin-4-ylcarbonyl)pyrrolo[2,1-f][1,2,4]triazin-4-amine] | > 7.00 | > 7.00 |
| COCCNC(=O)c1cn2ncnc(N)c2c1-c1ccc(Nc2nc3ccc(Oc4ccccc4)c(F)c3[nH]2)cc1 [Example 110, 4-amino-5-{4-[(7-fluoro-6-phenoxy-1H-benzimidazol-2-yl)amino]phenyl}-N-(2-methoxyethyl)pyrrolo[2,1-f][1,2,4]triazine-6-carboxamide] | > 7.00 | > 7.00 |
| CC(C)CNC(=O)c1cn2ncnc(N)c2c1-c1ccc(Nc2nc3ccc(Oc4ccccc4)c(F)c3[nH]2)cc1 [Example 111, 4-amino-5-{4-[(7-fluoro-6-phenoxy-1H-benzimidazol-2-yl)-amino]phenyl}-N-isobutylpyrrolo[2,1-f][1,2,4]triazine-6-carboxamide] | > 7.00 | > 7.00 |
| Nc1ncnn2cc(C(=O)NC3CCCC3)c(-c3ccc(Nc4nc5ccc(Oc6ccccc6)c(F)c5[nH]4)cc3)c12 [Example 112, 4-amino-N-cyclopentyl-5-{4-[(7-fluoro-6-phenoxy-1H-benzimidazol-2-yl)amino]phenyl}pyrrolo[2,1-f][1,2,4]triazine-6-carboxamide] | > 7.00 | > 7.00 |
| Nc1ncnn2cc(C(=O)N3CCCC3)c(-c3ccc(Nc4nc5ccc(Oc6ccccc6)c(F)c5[nH]4)cc3)c12 [Example 113, 5-{4-[(7-fluoro-6-phenoxy-1H-benzimidazol-2-yl)amino]phenyl}-6-(pyrrolidin-1-ylcarbonyl)pyrrolo[2,1-f][1,2,4]triazin-4-amine] | > 7.00 | > 7.00 |
| Cc1ccc(-c2ccc3nc(Nc4ccc(-c5c(C(=O)NCC(F)(F)F)cn6ncnc(N)c56)cc4)[nH]c3n2)cc1 [Example 115, 4-amino-5-(4-{[5-(4-methylphenyl)-3H-imidazo[4,5-b]pyridin-2-yl]amino}phenyl)-N-(2,2,2-trifluoroethyl)pyrrolo[2,1-f][1,2,4]triazine-6-carboxamide] | > 7.00 | > 7.00 |
